Laboratory results from ChEMBL document CHEMBL1255414, “Combination of V106I and V179D polymorphic mutations in human immunodeficiency virus type 1 reverse transcriptase confers resistance to efavirenz and nevirapine but not etravirine” (Antimicrob Agents Chemother, 2010).

What was measured:
[1] = system: Human immunodeficiency virus 1; assay: Antiviral activity against recombinant HIV1 harboring reverse transcriptase V106I mutant clone infected in MAGIC-5 cells using 5-bromo4-chloro-3-indolyl-beta-D-galactopyranoside staining based light microscopy; type: functional, organism-based; settings: Human immunodeficiency virus 1, MAGIC-5
[2] = system: Human immunodeficiency virus 1; assay: Antiviral activity against recombinant HIV1 harboring reverse transcriptase V179D mutant clone infected in MAGIC-5 cells using 5-bromo4-chloro-3-indolyl-beta-D-galactopyranoside staining based light microscopy; type: functional, organism-based; settings: Human immunodeficiency virus 1, MAGIC-5
[3] = system: Human immunodeficiency virus 1; assay: Antiviral activity against recombinant HIV1 harboring reverse transcriptase V106I/V179D mutant clone infected in MAGIC-5 cells using 5-bromo4-chloro-3-indolyl-beta-D-galactopyranoside staining based light microscopy; type: functional, organism-based; settings: Human immunodeficiency virus 1, MAGIC-5
[4] = system: Human immunodeficiency virus 1; assay: Antiviral activity against recombinant HIV1 harboring reverse transcriptase V106A mutant clone infected in MAGIC-5 cells using 5-bromo4-chloro-3-indolyl-beta-D-galactopyranoside staining based light microscopy; type: functional, organism-based; settings: Human immunodeficiency virus 1, MAGIC-5
[5] = system: Human immunodeficiency virus 1; assay: Resistance index, ratio of EC50 for recombinant HIV1 harboring reverse transcriptase V106I mutant clone to EC50 for wild type HIV1; type: functional
[6] = system: Human immunodeficiency virus 1; assay: Antiviral activity against wild type HIV1 infected in MAGIC-5 cells using 5-bromo4-chloro-3-indolyl-beta-D-galactopyranoside staining based light microscopy; type: functional, organism-based; settings: Human immunodeficiency virus 1, MAGIC-5
[7] = system: Human immunodeficiency virus 1; assay: Resistance index, ratio of EC50 for recombinant HIV1 harboring reverse transcriptase V106I/V179D mutant clone to EC50 for wild type HIV1; type: functional
[8] = system: Human immunodeficiency virus 1; assay: Resistance index, ratio of EC50 for recombinant HIV1 harboring reverse transcriptase V179D mutant clone to EC50 for wild type HIV1; type: functional
[9] = system: Human immunodeficiency virus 1; assay: Antiviral activity against recombinant HIV1 harboring reverse transcriptase V106A/V179D mutant clone infected in MAGIC-5 cells using 5-bromo4-chloro-3-indolyl-beta-D-galactopyranoside staining based light microscopy; type: functional, organism-based; settings: Human immunodeficiency virus 1, MAGIC-5
[10] = system: Human immunodeficiency virus 1; assay: Resistance index, ratio of EC50 for recombinant HIV1 harboring reverse transcriptase V106A/V179D mutant clone to EC50 for wild type HIV1; type: functional
[11] = system: Human immunodeficiency virus 1; assay: Resistance index, ratio of EC50 for recombinant HIV1 harboring reverse transcriptase V106A mutant clone to EC50 for wild type HIV1; type: functional

SMILES: Cc1cc(C#N)cc(C)c1Oc1nc(Nc2ccc(C#N)cc2)nc(N)c1Br [ETRAVIRINE]
- EC50 [1]: 1.5 nM
- EC50 [2]: 1.9 nM
- EC50 [3]: 2.4 nM
- EC50 [4]: 0.5 nM
- Ratio EC50 [5]: 1.3
- EC50 [6]: 1.2 nM
- Ratio EC50 [7]: 2
- Ratio EC50 [8]: 1.6
- EC50 [9]: 1.4 nM
- Ratio EC50 [10]: 1.2
- Ratio EC50 [11]: 0.4

SMILES: Cc1ccnc2c1NC(=O)c1cccnc1N2C1CC1 [NEVIRAPINE]
- EC50 [1]: 20 nM
- EC50 [2]: 130 nM
- EC50 [3]: 370 nM
- EC50 [4]: 3430 nM
- Ratio EC50 [5]: 0.4
- EC50 [6]: 50 nM
- Ratio EC50 [7]: 7
- Ratio EC50 [8]: 2.6
- EC50 [9]: 4530 nM
- Ratio EC50 [10]: 91
- Ratio EC50 [11]: 69

SMILES: O=C1Nc2ccc(Cl)cc2[C@@](C#CC2CC2)(C(F)(F)F)O1 [EFAVIRENZ]
- EC50 [1]: 3 nM
- EC50 [2]: 4 nM
- EC50 [3]: 29 nM
- EC50 [4]: 3 nM
- EC50 [9]: 13 nM
